According to US9006450B2 (Boehringer Ingelheim International GmbH, priority 2010, dated 2015):

Molecular target: T1, human ACC2 (Homo sapiens, UniProt O00763)
T1 construct: made in house; host or cells: insect cells (baculoviral expression system)
Assay: ACC2 assay, spectrophotometric 384 well assay (NADH-linked, coupled lactate dehydrogenase/pyruvate kinase)
Format: biochemical
Conditions: ACC2 assay, hACC2 construct lacking 128 N-terminal amino acids, 25° C., 340 nm; read-out: IC50
How it was run: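 Human ACC2 lacking N-terminal 128 aa, baculovirus/insect-cell expressed, anion-exchange purified; 100 mM Tris pH 7.5, 10 mM citrate, 25 mM KHCO3, 1% DMSO. Started with 200 μM NADH and acetyl-CoA plus 500 μM ATP; PK/LDH-coupled A340 decrease read 15 min at 25° C. IC50 by nonlinear fit of low-control-subtracted slopes.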

T1 sequence (O00763 129-2458 limits assumed): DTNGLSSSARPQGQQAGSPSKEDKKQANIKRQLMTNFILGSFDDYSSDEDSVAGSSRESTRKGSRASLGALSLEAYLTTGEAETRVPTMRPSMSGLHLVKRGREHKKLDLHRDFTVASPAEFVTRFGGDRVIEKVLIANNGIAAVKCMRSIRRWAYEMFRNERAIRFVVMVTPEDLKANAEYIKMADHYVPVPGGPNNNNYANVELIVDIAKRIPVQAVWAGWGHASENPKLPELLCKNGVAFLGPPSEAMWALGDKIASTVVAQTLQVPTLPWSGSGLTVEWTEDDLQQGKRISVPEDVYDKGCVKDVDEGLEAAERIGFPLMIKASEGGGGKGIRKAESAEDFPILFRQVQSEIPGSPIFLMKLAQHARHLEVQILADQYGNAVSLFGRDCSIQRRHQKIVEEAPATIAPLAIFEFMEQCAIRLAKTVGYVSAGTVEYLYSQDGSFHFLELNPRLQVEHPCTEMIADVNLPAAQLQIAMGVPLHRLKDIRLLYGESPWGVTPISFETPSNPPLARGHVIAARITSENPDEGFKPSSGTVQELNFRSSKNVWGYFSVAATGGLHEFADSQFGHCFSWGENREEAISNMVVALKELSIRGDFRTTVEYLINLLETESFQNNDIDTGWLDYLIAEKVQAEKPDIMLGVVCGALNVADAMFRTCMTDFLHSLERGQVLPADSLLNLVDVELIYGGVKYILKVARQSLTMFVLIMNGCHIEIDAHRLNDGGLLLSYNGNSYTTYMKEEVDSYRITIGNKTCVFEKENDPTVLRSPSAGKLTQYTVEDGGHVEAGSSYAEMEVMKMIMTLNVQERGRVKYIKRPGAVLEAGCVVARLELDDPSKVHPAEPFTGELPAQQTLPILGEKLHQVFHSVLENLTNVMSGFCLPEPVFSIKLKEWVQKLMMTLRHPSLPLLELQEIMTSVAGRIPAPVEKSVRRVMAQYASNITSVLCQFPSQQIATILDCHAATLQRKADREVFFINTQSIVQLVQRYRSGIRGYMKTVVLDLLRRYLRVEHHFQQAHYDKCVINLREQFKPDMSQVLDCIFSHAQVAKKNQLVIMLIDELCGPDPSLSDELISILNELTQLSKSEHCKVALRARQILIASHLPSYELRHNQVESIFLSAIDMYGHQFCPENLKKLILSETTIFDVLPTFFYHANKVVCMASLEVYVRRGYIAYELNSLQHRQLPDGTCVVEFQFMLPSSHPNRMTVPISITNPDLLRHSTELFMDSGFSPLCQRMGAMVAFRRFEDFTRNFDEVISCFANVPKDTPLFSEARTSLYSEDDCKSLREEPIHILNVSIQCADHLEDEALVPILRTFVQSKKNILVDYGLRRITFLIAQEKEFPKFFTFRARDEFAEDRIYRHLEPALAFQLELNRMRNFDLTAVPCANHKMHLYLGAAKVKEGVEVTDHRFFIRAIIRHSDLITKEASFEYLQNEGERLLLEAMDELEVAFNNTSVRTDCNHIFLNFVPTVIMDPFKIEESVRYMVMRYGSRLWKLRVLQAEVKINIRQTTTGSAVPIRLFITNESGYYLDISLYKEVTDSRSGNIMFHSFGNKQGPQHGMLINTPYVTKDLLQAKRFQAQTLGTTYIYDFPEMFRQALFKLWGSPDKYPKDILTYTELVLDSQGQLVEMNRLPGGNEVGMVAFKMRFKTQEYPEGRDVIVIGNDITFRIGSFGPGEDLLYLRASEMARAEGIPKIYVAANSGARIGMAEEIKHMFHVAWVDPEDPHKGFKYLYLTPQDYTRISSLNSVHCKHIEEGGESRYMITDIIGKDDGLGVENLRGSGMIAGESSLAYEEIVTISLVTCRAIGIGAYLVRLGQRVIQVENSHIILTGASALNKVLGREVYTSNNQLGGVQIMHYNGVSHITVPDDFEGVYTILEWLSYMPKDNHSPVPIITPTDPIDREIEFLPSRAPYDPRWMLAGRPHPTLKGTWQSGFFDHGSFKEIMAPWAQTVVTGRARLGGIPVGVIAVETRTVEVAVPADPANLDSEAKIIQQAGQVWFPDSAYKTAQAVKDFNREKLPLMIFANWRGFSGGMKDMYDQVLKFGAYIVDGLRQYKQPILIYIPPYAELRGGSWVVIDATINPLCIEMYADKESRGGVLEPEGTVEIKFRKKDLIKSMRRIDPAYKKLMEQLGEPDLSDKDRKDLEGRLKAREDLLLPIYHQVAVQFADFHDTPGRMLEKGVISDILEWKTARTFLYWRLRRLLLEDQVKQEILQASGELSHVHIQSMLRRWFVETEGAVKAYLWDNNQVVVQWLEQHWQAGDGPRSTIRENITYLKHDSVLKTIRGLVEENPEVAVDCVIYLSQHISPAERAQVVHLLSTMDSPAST

Row | SMILES | IC50
1 | CCCN(C)c1cc(N2CCC(c3ccc([C@H](C)NC(C)=O)cc3)CC2)ncn1 [Example 11.68] | 610 nM
2 | CCCN(C)c1nccc(N2CCC(c3ccc([C@H](C)NC(C)=O)cc3)CC2)n1 [Example 11.69] | 200 nM
3 | CC(=O)N[C@@H](C)c1ccc(C2CCN(c3cc(NCCC(C)C)ncn3)CC2)cc1 [Example 11.70] | 4500 nM
4 | CC(=O)N[C@@H](C)c1ccc(C2CCN(c3ccnc(NCCC(C)C)n3)CC2)cc1 [Example 11.71] | 2300 nM
5 | CC(=O)N[C@@H](C)c1ccc(C2CCN(c3cc(NCCc4ccccc4)ncn3)CC2)cc1 [Example 11.72] | 10500 nM
6 | CC(=O)N[C@@H](C)c1ccc(C2CCN(c3ccnc(NC4CCOCC4)n3)CC2)cc1 [Example 11.73] | 15600 nM
7 | CC(=O)N[C@@H](C)c1ccc(C2CCN(c3cc(NC4CCOCC4)ncn3)CC2)cc1 [Example 11.74] | 8300 nM
8 | CC(=O)N[C@@H](C)c1ccc(C2CCN(c3ccnc(N[C@H](C)C(C)C)n3)CC2)cc1 [Example 11.75] | 3800 nM
9 | CC(=O)N[C@@H](C)c1ccc(C2CCN(c3cc(N[C@H](C)C(C)C)ncn3)CC2)cc1 [Example 11.76] | 6000 nM
10 | CC(=O)N[C@@H](C)c1ccc(C2CCN(c3cc(N4CC5CCCC5C4)ncn3)CC2)cc1 (some centres unmarked) [Example 11.77] | 280 nM
11 | CC(=O)N[C@@H](C)c1ccc(C2CCN(c3ccnc(N4CC5CCCC5C4)n3)CC2)cc1 (some centres unmarked) [Example 11.78] | 610 nM
12 | COC1CN(c2cc(N3CCC(c4ccc([C@H](C)NC(C)=O)cc4)CC3)ncn2)C1 [Example 11.79] | 4000 nM
13 | COC1CN(c2nccc(N3CCC(c4ccc([C@H](C)NC(C)=O)cc4)CC3)n2)C1 [Example 11.80] | 2300 nM
14 | COC1CCN(c2cc(N3CCC(c4ccc([C@H](C)NC(C)=O)cc4)CC3)ncn2)CC1 [Example 11.81] | 2300 nM
15 | CC(=O)N[C@@H](C)c1ccc(C2CCN(c3cc(N(C)Cc4ccccc4)ncn3)CC2)cc1 [Example 11.82] | 870 nM
16 | CC(=O)N[C@@H](C)c1ccc(C2CCN(c3ccnc(N(C)Cc4ccccc4)n3)CC2)cc1 [Example 11.83] | 410 nM
17 | CNc1nccc(N2CCC(c3ccc([C@H](C)NC(C)=O)cc3)CC2)n1 [Example 11.84] | 6500 nM
18 | CNc1cc(N2CCC(c3ccc([C@H](C)NC(C)=O)cc3)CC2)ncn1 [Example 11.85] | 13900 nM
19 | CC(=O)N[C@@H](C)c1ccc(C2CCN(c3ccnc(N(C)C4CC4)n3)CC2)cc1 [Example 11.86] | 770 nM

Row | SMILES | IC50
20 | CC(=O)N[C@@H](C)c1ccc(C2CCN(c3cc(N(C)C4CC4)ncn3)CC2)cc1 [Example 11.87] | 790 nM
21 | CC(=O)N[C@@H](C)c1ccc(C2CCN(c3ccnc(N4Cc5ccccc5C4)n3)CC2)cc1 [Example 11.88] | 1600 nM
22 | CC(=O)N[C@@H](C)c1ccc(C2CCN(c3cc(N4Cc5ccccc5C4)ncn3)CC2)cc1 [Example 11.89] | 760 nM
23 | CC(=O)N[C@@H](C)c1ccc(C2CCN(c3ccnc(N(C)CC4CC4)n3)CC2)cc1 [Example 11.90] | 230 nM
24 | CC(=O)N[C@@H](C)c1ccc(C2CCN(c3cc(N(C)CC4CC4)ncn3)CC2)cc1 [Example 11.91] | 440 nM
25 | CC(=O)N[C@@H](C)c1ccc(C2CCN(c3cc(N4CCC5(CC5)C4)ncn3)CC2)cc1 [Example 11.92] | 320 nM
26 | CC(=O)N[C@@H](C)c1ccc(C2CCN(c3ccnc(N4CCC5(CC5)C4)n3)CC2)cc1 [Example 11.93] | 550 nM
27 | CC(=O)N[C@@H](C)c1ccc(C2CCN(c3ccnc(NCC4CCC4)n3)CC2)cc1 [Example 11.94] | 1700 nM
28 | CC(=O)N[C@@H](C)c1ccc(C2CCN(c3cc(NCC4CCC4)ncn3)CC2)cc1 [Example 11.95] | 2000 nM
29 | CC(=O)N[C@@H](C)c1ccc(C2CCN(c3ccnc(N(C)C4CCCC4)n3)CC2)cc1 [Example 11.96] | 350 nM
30 | CC(=O)N[C@@H](C)c1ccc(C2CCN(c3cc(N(C)C4CCCC4)ncn3)CC2)cc1 [Example 11.97] | 330 nM
31 | CC(=O)N[C@@H](C)c1ccc(C2CCN(c3ccnc(N4CCC4)n3)CC2)cc1 [Example 11.98] | 660 nM
32 | CC(=O)N[C@@H](C)c1ccc(C2CCN(c3cc(N4CCC4)ncn3)CC2)cc1 [Example 11.99] | 2500 nM
33 | CC(=O)N[C@@H](C)c1ccc(C2CCN(c3ccnc(NCc4ccoc4)n3)CC2)cc1 [Example 11.100] | 5200 nM
34 | CC(=O)N[C@@H](C)c1ccc(C2CCN(c3cc(NCc4ccoc4)ncn3)CC2)cc1 [Example 11.101] | 4000 nM
35 | CC(=O)N[C@@H](C)c1ccc(C2CCN(c3ccnc(NCCF)n3)CC2)cc1 [Example 11.102] | 3200 nM
36 | CC(=O)N[C@@H](C)c1ccc(C2CCN(c3cc(NC4CCCC4)ncn3)CC2)cc1 [Example 11.103] | 2600 nM
37 | CC(=O)N[C@@H](C)c1ccc(C2CCN(c3ccnc(N(C)C)n3)CC2)cc1 [Example 11.104] | 600 nM
38 | CC(=O)N[C@@H](C)c1ccc(C2CCN(c3cc(N(C)C)ncn3)CC2)cc1 [Example 11.105] | 1700 nM

Row | SMILES | IC50
39 | CC(=O)N[C@@H](C)c1ccc(C2CCN(c3ccnc(NCCC4CC4)n3)CC2)cc1 [Example 11.106] | 1600 nM
40 | CC(=O)N[C@@H](C)c1ccc(C2CCN(c3cc(NCCC4CC4)ncn3)CC2)cc1 [Example 11.107] | 2400 nM
41 | CC(=O)N[C@@H](C)c1ccc(C2CCN(c3cc(OCC4CC4)ncn3)CC2)cc1 [Example 11.108] | 110 nM
42 | CC(=O)N[C@@H](C)c1ccc(C2CCN(c3cc(OC4CCC4)ncn3)CC2)cc1 [Example 11.109] | 80 nM
43 | CC(=O)N[C@@H](C)c1ccc(C2CCN(c3ccnc(OC4CCC4)n3)CC2)cc1 [Example 11.110] | 230 nM
44 | CC(=O)N[C@@H](C)c1ccc(C2CCN(c3ccnc(NCC4CC4)n3)CC2)cc1 [Example 11.111] | 640 nM
45 | CC(=O)N[C@@H](C)c1ccc(C2CCN(c3cc(NCC4CC4)ncn3)CC2)cc1 [Example 11.112] | 1100 nM
46 | CC(=O)N[C@@H](C)c1ccc(C2CCN(c3cc(N4CCCC4)ncn3)CC2)cc1 [Example 11.113] | 200 nM
47 | CC(=O)N[C@@H](C)c1ccc(C2CCN(c3ccnc(N4CCCC4)n3)CC2)cc1 [Example 11.114] | 180 nM
48 | CC(=O)N[C@@H](C)c1ccc(C2CCN(c3ccnc(NC4CC4)n3)CC2)cc1 [Example 11.115] | 1500 nM
49 | CC(=O)N[C@@H](C)c1ccc(C2CCN(c3cc(O)ncn3)CC2)cc1 [Example 11.116] | 14500 nM
50 | CC(=O)N[C@@H](C)c1ccc(C2CCN(c3ccnc(Nc4cncnc4)n3)CC2)cc1 [Example 11.117] | 4300 nM
51 | CC(=O)N[C@@H](C)c1ccc(C2CCN(c3ccnc(Oc4ccccc4)n3)CC2)cc1 [Example 11.119] | 240 nM
52 | C[C@H](NC(=O)C1CC1)c1ccc(C2CCN(c3nc(Oc4ccc(F)cc4)ncc3F)CC2)cc1 [Example 11.120] | 280 nM
53 | C[C@H](NC(=O)C1CC1)c1ccc(C2CCN(c3nc(N4CCCC4)ncc3F)CC2)cc1 [Example 11.121] | 470 nM
54 | C[C@H](NC(=O)C1CC1)c1ccc(C2CCN(c3nc(N4CCCC4)ncc3C#N)CC2)cc1 [Example 11.122] | 1400 nM
55 | C[C@H](NC(=O)C1CC1)c1ccc(C2CCN(c3ncnc(N4CCCC4)c3F)CC2)cc1 [Example 11.123] | 200 nM
56 | C[C@H](NC(=O)C1CC1)c1ccc(C2CCN(c3nc(OC4CCC4)ncc3F)CC2)cc1 [Example 11.124] | 880 nM
